Earlier results as cited in patent US9801874B2, “Method for the preparation of liposome encapsulated vincristine for therapeutic use” (Spectrum Pharmaceuticals, Inc., priority 2012, dated 2017).
Structures can show the parent of a compound that is named as a salt.

Details: 1:1 sulfate salt, crystalline powder

solubility in water: soluble in water
SMILES: CCC12C=CCN3CC[C@@]4(c5cc([C@@]6(C(=O)OC)CC7CN(CCc8c6[nH]c6ccccc86)C[C@](O)(CC)C7)c(OC)cc5N(C=O)[C@H]4[C@@](O)(C(=O)OC)C1OC(C)=O)C32 (stereo partly shown) [Vincristine sulfate, 22-oxovincaleukoblastine]
